The test system of data set [1] is 4T1 cells. The experiment in a line: Intracellular stability by HPLC. In kind it is in vitro ADME, Mouse. The protocol: Stability of drugs is vital indexes for anticancer application. The stability of Rhein-DCA conjugate in vitro was performed by dispersing it in 2.5% dimethyl sulfoxide (DMSO)-PBS at room temperature for 0, 2, 6 and 12 h. […] Furthermore, we also quantitatively analyzed the intracellular stability of Rhein-DCA using high-performance liquid chromatography (HPLC). After 4 h of uptake, the intracellular concentration of Rhein-DCA was 0.095 μg/10^6 cells within 4T1 cells.
UV-Vis spectra were used to investigate the stability of Rhein-DCA conjugate. The Rhein-DCA was dispersed in 2.5% DMSO-PBS at room temperature, and the absorption spectrum was monitored at 0, 2, 6 and 12 h. High performance liquid chromatography (HPLC) was used to investigate the intracellular stability of Rhein-DCA conjugate. 4T1 cells were seeded in cell culture dish (diameter of 10 cm) at a density of 2 × 10^6 cells per dish and cultured in the incubator for 24 h. Then the cells were further treated with Rhein-DCA conjugate at a concentration of 11 μg/mL for 4 h. After removing media and washing the cells three times with PBS to remove the residual Rhein-DCA, the cells were incubated for another 2 h. Then, the cells were collected and washed twice with PBS. The cells were suspended in 1 mL methanol to obtain cell lysates by three freeze-thaw. Then the supernatant was collected after centrifugation at 13000 G for 10 min for HPLC analysis. A C18 column was used with methanol / 0.1% H₃PO₄ (83:17) as the mobile phase, flow rate 1.0 mL/min, fluorescence detector with an excitation wavelength of 443 nm and an emission wavelength of 530 nm.

Data set [2] has as its system 4T1 cells. The experiment in a line: Intracellular and extracellular lactate determination. In kind it is cell-based, Mouse. The conditions noted are these: 6.25 μM, 24 h. The protocol: Next, the end product of glycolysis, lactate, was analyzed in 4T1 cells to further confirm the efficacy of the Rhein-DCA conjugate in blocking glycolytic metabolism. […] Lactate will be released from cells and condense in the TME due to the sustained aerobic glycolysis. To determine whether the decline in intracellular lactate level was caused by an increased extracellular secretion or a disconnect in glycolysis pathway, we further detected the lactate content in the culture medium (Figure 2E). The changes in extracellular lactate level were consistent with those observed intracellularly across the tested groups.
4T1 cells were seeded into 6-well plates at a density of 10 × 10^4 cells per well and cultured for 24 h. Cells were exposed to PBS, rhein, DCA, R + D and Rhein-DCA conjugate at a concentration of 6.25 μM for 24 h. (1) Medium: The medium from different groups was subjected to centrifugation at 9391 G for 10 min, 100 μL of supernatant was obtained, and 1 mL of extraction solution I was added. (2) Cells: After being washed twice with PBS, cells were harvested and suspended in extraction solution I (1 mL) for further lysis with sonication in ice bath (power 300 W, the duration of sonication is 3 s, the interval duration of 7 s, total sonication time of 3 min). […] Finally, the absorption value of each sample was detected with microplate reader at 570 nm.

With `O=C(OCCOC(=O)C(Cl)Cl)c1cc(O)c2c(c1)C(=O)c1cccc(O)c1C2=O` [Rhein-DCA], the “intracellular concentration after 4 h of uptake” value in the data set on 4T1 cells [1] (11 μg/mL, 4 h) is listed as 0.095 μg/10^6 cells. Moreover, the “residual intracellular concentration after removing drug and incubating another 2 h” value in the data set on 4T1 cells [1] (4 h uptake then 2 h drug-free) was determined as 0.080 μg/10^6 cells. For the same compound, the intracellular degradation rate entry in the data set on 4T1 cells [1] (within 2 h) is “approximately 15.7%”. Also, the intracellular lactate content entry in the data set on 4T1 cells [2] is “noticeable descent”.

The values above are taken from article PMC12036875, “Mitochondria-targeting natural product rhein conjugated with dichloroacetate as the dual inhibitor of glycolysis and oxidative phosphorylation to off energize cancer cells and induce ROS storm” (Theranostics, 2025).
